The values that follow come from patent publication US5945436A, “Pyridylmethyl nitriles, amides and thioamides useful as fungicides” (Uniroyal Chemical Company, Inc., priority 1997, dated 1999).

One assay relates to Pythium ultimum. In words: Fungal growth inhibition, treated disc on agar (PYT ULT). It counts as cell-based. The following applies: Globisporangium ultimum, disc dipped in 500 mg/l, 29° C., read-out: Percent Growth Inhibition, PYT ULT.
The next assay has as its system Botrytis cinerea. Nature of the assay: Fungal growth inhibition, treated disc on agar (BOT CIN). It counts as cell-based. The conditions noted are these: Botrytis cinerea, disc dipped in 500 mg/l, 29° C., read-out: Percent Growth Inhibition, BOT CIN.
The next assay deals with Erysiphe polygoni. Nature of the assay: Powdery mildew on pinto bean, foliar application (ERY POL). The assay is classed as in vivo. The conditions noted are these: Erysiphe polygoni, similar procedure as barley (1,000 mg/l), read-out: Percent Reduction of Disease, ERY POL. As to the method: Compositions containing Compounds Nos. 1-81 were prepared by dissolving 0.24 grams of each of the compounds in 8 ml of acetone or other suitable inert solvent. Each of the resultant solutions was treated with 3 drops of TWEEN 20 (ethoxylated ethylene sorbitan monolaurate, a non-ionic surfactant)(I.C.I.), and water was added to form an emulsion. The degree of dilution with water was dictated by the desired concentration of the compound in the composition. The greater the quantity of water added, the lower the concentration of the compound in the composition, reported in milligrams per liter (mg/l) Ten plants of "Robust" variety barley were planted in each of a plurality of pots. Each pot was then either sprayed with one of the compositions of Example 9, at a composition concentration of 1,000 mg/l, or left unsprayed. For each pot sprayed, one pot was left unsprayed as a control. After the leaves of the sprayed pots were dried, the sprayed pots and the unsprayed control pots were placed in a greenhouse maintained at 21° C. All the pots were then inoculated with barley powdery mildew fungus, Erysiphe graminis. This inoculation was accomplished by distributing spores of the fungus over the leaves of the plants to be tested from plants which had previously been infected with the mildew disease. […] Again, percent control was computed by comparing the treatment scores with the scores of the untreated controls. The results are summarized in Table II under the heading "ERY GRA". Using a similar procedure as described above for the barley, pinto bean plants were prepared, treated and inoculated with the fungus Erysiphe polygoni. The results of this testing are summarized in Table II under the heading "ERY POL".

A further assay deals with Colletotrichum gossypii. Nature of the assay: Fungal growth inhibition, treated disc on agar (COL GOS). The assay is classed as cell-based. The following applies: Colletotrichum gossypii, disc dipped in 500 mg/l, 29° C., read-out: Percent Growth Inhibition, COL GOS.
For the next assay, the system named is Uromyces phaseoli. In words: Bean rust fungus eradicant test (URO PHA). The following applies: Uromyces phaseoli, 216 h, pinto bean, eradicant spray 2 days after inoculation, 1,000 mg/l; read-out: Percent Reduction of Disease, URO PHA. The assay is classed as in vivo. As to the method:
Compositions containing Compounds Nos. 1-81 were prepared by dissolving 0.24 grams of each of the compounds in 8 ml of acetone or other suitable inert solvent. Each of the resultant solutions was treated with 3 drops of TWEEN 20 (ethoxylated ethylene sorbitan monolaurate, a non-ionic surfactant)(I.C.I.), and water was added to form an emulsion. The degree of dilution with water was dictated by the desired concentration of the compound in the composition. The greater the quantity of water added, the lower the concentration of the compound in the composition, reported in milligrams per liter (mg/l) A plurality of pots were each planted with two pinto bean plants, Phaseolus vulgaris, each, susceptible to rust disease. When the plants were 7 days old, at the primary leaf stage of growth, they were all sprayed with a suspension containing 20,000 spores of the bean rust fungus, Uromyces phaseoli, per ml. All the pots were then incubated in a controlled environmental chamber, maintained at 99% humidity and 21° C., for 24 hours to allow infection to occur. The plants were then removed from the incubator and allowed to dry. Two days after inoculation each of the infected plants was then either sprayed with one of the compositions of Example 9, at a dosage of 1,000 mg/l, or left unsprayed. The unsprayed plants acted as controls. All of the sprayed and unsprayed plants were then placed in a greenhouse at 21° C. for nine days to allow the disease to develop. […] Control of disease was determined by comparing treated plants with the untreated controls. The results, expressed as percent reduction of disease, are summarized in Table II under the heading "URO PHA".

For another assay, the system named is Scierotinia minor. In words: Fungal growth inhibition, treated disc on agar (SCL MIN). It counts as cell-based. The following applies: disc dipped in 500 mg/l, 29° C., read-out: Percent Growth Inhibition, SCL MIN.

Description for Colletotrichum gossypii: (§1) Filter paper discs, each 11 mm. in diameter, were dipped in each of the test solutions. The discs were allowed to air dry to drive off the acetone solvent. A number of untreated discs were used as controls.
(§2) The treated and untreated discs were then placed on agar plates and one of the following fungus species: Septoria nodorum (SEP NOD), Botrytis cinerea (BOT CIN), Fusarium oxysporum (FUS OXY), Pythium ultimum (PYT ULT), Rhizoctonia solani (RHI SOL), Colletotrichum gossypii (COL GOS), and Scierotinia minor (SCL MIN), was added to the center of each disc in the form of a culture plug with the fungus mat in contact with the paper of the test disc. Cercosporidium personatum (CER PER), was added to discs as a spore suspension (20,000 spores/ml) to the disc (two drops of spore suspension per disc), rather than a mycelial culture plug. The plates were then incubated at 29° C. in an oven.
(§3) With the exception of the discs containing Cercosporidium personatum, the discs were evaluated by first measuring the radius from the center of the fungus colony on the treated discs and on the untreated discs. Percent growth inhibition of each of the compounds tested was determined as a function of the difference between the radius of the fungus colony on the treated disc versus the radius of the fungus colony on the untreated disc.
Description for Scierotinia minor: as §1, §2, §3

Turning to `N#CC(CCc1ccccc1)(CCc1ccccc1)c1cccnc1` [A, reference compound], the inhibition (usually the relative decrease from the control value, in per cent) at 500 µg/mL in the assay with Pythium ultimum was found to be 10%; with Botrytis cinerea, 0%; in the assay with Colletotrichum gossypii it was 25%; with Scierotinia minor it was 10%. Moreover, the pest or weed control at 1000 µg/mL with Erysiphe polygoni was determined as 15%; in the assay with Uromyces phaseoli, 0%.
With `CC(C)(C)c1ccc(CC(C#N)(Cc2ccc(C(C)(C)C)cc2)c2cccnc2)cc1` [B, reference compound], the inhibition at 500 µg/mL with Pythium ultimum stood at 15%; in the assay with Botrytis cinerea, 0%; in the assay on Colletotrichum gossypii it was 0%; with Scierotinia minor it was 60%. The pest or weed control at 1000 µg/mL with Erysiphe polygoni and in the assay on Uromyces phaseoli was 0% each time.
On to `CCCC(C#N)(CCc1ccccc1)c1cccnc1` (stereo not drawn) [Compound 1], for which the inhibition at 500 µg/mL with Pythium ultimum turned out to be 40%; in the assay on Botrytis cinerea, 5%; in the assay on Colletotrichum gossypii, 100%; in the assay with Scierotinia minor, 100%. Also, the pest or weed control at 1000 µg/mL was 95% with Erysiphe polygoni and 60% in the assay with Uromyces phaseoli.
Regarding `CCCCCCCC(C#N)(CCc1ccccc1)c1cccnc1` (stereo not drawn) [Compound 2], the inhibition at 500 µg/mL with Pythium ultimum is 0%; in the assay on Botrytis cinerea, 60%; in the assay with Colletotrichum gossypii, 60%; with Scierotinia minor, 100%. The pest or weed control at 1000 µg/mL in the assay on Erysiphe polygoni amounted to 100%; in the assay on Uromyces phaseoli, 97%.
As for `CCCCCC(C#N)(CCc1ccccc1)c1cccnc1` (stereo not drawn) [Compound 3], the inhibition at 500 µg/mL in the assay on Pythium ultimum is 5%; in the assay on Botrytis cinerea it was 100%; with Colletotrichum gossypii, 97%; with Scierotinia minor, 100%. For the same compound, the pest or weed control at 1000 µg/mL with Erysiphe polygoni and with Uromyces phaseoli was 100% in each case.
As to `C#CCC(C#N)(CCc1ccccc1)c1cccnc1` (stereo not drawn) [Compound 4], the inhibition at 500 µg/mL in the assay on Pythium ultimum came to 100%; in the assay with Botrytis cinerea it was 94%; with Colletotrichum gossypii, 100%; with Scierotinia minor it was 98%. Further, the values for the pest or weed control at 1000 µg/mL in the assay on Erysiphe polygoni and in the assay with Uromyces phaseoli were 90% and 0%, respectively.
For the compound `C=CCC(C#N)(CCc1ccccc1)c1cccnc1` (stereo not drawn) [Compound 5], the inhibition at 500 µg/mL in the assay on Pythium ultimum was determined as 82%; with Botrytis cinerea it was 100%; with Colletotrichum gossypii it was 97%; in the assay with Scierotinia minor, 95%. Also, the pest or weed control at 1000 µg/mL in the assay on Erysiphe polygoni and with Uromyces phaseoli was 90% in each case.
Take `COCC(C#N)(CCc1ccccc1)c1cccnc1` (stereo not drawn) [Compound 6]: the inhibition at 500 µg/mL amounted to 50% in the assay on Pythium ultimum, 100% in the assay with Botrytis cinerea, 95% in the assay with Colletotrichum gossypii and 100% with Scierotinia minor. For the same compound, the values for the pest or weed control at 1000 µg/mL in the assay on Erysiphe polygoni and with Uromyces phaseoli were 100% and 50%, respectively.
For the compound `CC(C)CC(C#N)(CCc1ccccc1)c1cccnc1` (stereo not drawn) [Compound 7], the inhibition at 500 µg/mL worked out at 35% in the assay with Pythium ultimum, 100% with Botrytis cinerea, 89% in the assay on Colletotrichum gossypii and 10% with Scierotinia minor. For the same compound, the pest or weed control at 1000 µg/mL in the assay on Erysiphe polygoni amounted to 100%; in the assay with Uromyces phaseoli it was 90%.
Regarding `CC(C)=CCC(C#N)(CCc1ccccc1)c1cccnc1` (stereo not drawn) [Compound 8], the inhibition at 500 µg/mL in the assay with Pythium ultimum came to 35%; in the assay with Botrytis cinerea, 40%; in the assay on Colletotrichum gossypii it was 95%; in the assay with Scierotinia minor, 100%. Further, the pest or weed control at 1000 µg/mL is 99% in the assay with Erysiphe polygoni and 80% in the assay on Uromyces phaseoli.
For the compound `C=CCC(C#N)(CCc1ccc(F)cc1)c1cccnc1` (stereo not drawn) [Compound 9, 4-fluoro-α-(2-propenyl)-α-(3-pyridinyl)benzenebutanenitrile], the inhibition at 500 µg/mL was 35% with Pythium ultimum, 100% in the assay with Botrytis cinerea, 100% with Colletotrichum gossypii and 98% in the assay on Scierotinia minor. Moreover, the pest or weed control at 1000 µg/mL in the assay with Erysiphe polygoni amounted to 99%; in the assay with Uromyces phaseoli, 100%.
For the compound `CCCC(C#N)(CCc1ccc(F)cc1)c1cccnc1` (stereo not drawn) [Compound 10], the inhibition at 500 µg/mL was determined as 40% in the assay on Pythium ultimum, 98% in the assay with Botrytis cinerea, 97% in the assay with Colletotrichum gossypii and 100% in the assay with Scierotinia minor. In addition, the results for the pest or weed control at 1000 µg/mL with Erysiphe polygoni and with Uromyces phaseoli were 99% and 100%, respectively.
On to `CCCCC(C#N)(CCc1ccc(F)cc1)c1cccnc1` (stereo not drawn) [Compound 11], for which the inhibition at 500 µg/mL in the assay on Pythium ultimum worked out at 40%; in the assay with Botrytis cinerea it was 100%; with Colletotrichum gossypii, 100%; in the assay with Scierotinia minor it was 98%. In addition, the pest or weed control at 1000 µg/mL in the assay on Erysiphe polygoni and in the assay on Uromyces phaseoli was 100% throughout.
For the compound `CCCC(C#N)(CCCc1ccc(Cl)cc1)c1cccnc1` (stereo not drawn) [Compound 12], the inhibition at 500 µg/mL in the assay on Pythium ultimum is 90%; in the assay on Botrytis cinerea, 98%; in the assay on Colletotrichum gossypii it was 93%; with Scierotinia minor it was 92%. Also, the values for the pest or weed control at 1000 µg/mL in the assay with Erysiphe polygoni and in the assay with Uromyces phaseoli were 95% and 100%, respectively.
`CCCCC(C#N)(CCCc1ccc(Cl)cc1)c1cccnc1` (stereo not drawn) [Compound 13]: the inhibition at 500 µg/mL was 10% in the assay on Pythium ultimum, 98% in the assay on Botrytis cinerea, 93% in the assay with Colletotrichum gossypii and 94% in the assay with Scierotinia minor. Further, the pest or weed control at 1000 µg/mL in the assay with Erysiphe polygoni and with Uromyces phaseoli was 100% each time.
For the compound `CCCC(C#N)(Cc1ccc(C(C)(C)C)cc1)c1cccnc1` (stereo not drawn) [Compound 14], the inhibition at 500 µg/mL in the assay with Pythium ultimum was 10%; in the assay with Botrytis cinerea it was 15%; in the assay on Colletotrichum gossypii, 5%; in the assay with Scierotinia minor it was 5%. For the same compound, the pest or weed control at 1000 µg/mL in the assay on Erysiphe polygoni is 100%; in the assay on Uromyces phaseoli, 33%.
In the case of `CCCC(C#N)(CCCc1ccccc1Cl)c1cccnc1` (stereo not drawn) [Compound 15, 2-chloro-α-propyl-(3-pyridinyl)benzene pentanenitrile], the inhibition at 500 µg/mL with Pythium ultimum came to 83%; in the assay with Botrytis cinerea, 30%; with Colletotrichum gossypii, 93%; with Scierotinia minor, 100%. Moreover, the pest or weed control at 1000 µg/mL stood at 100% in the assay on Erysiphe polygoni and 83% with Uromyces phaseoli.
As for `CCCCCCC(C#N)(Cc1ccc(C(C)(C)C)cc1)c1cccnc1` (stereo not drawn) [Compound 16], the inhibition at 500 µg/mL in the assay with Pythium ultimum was determined as 45%; with Botrytis cinerea it was 20%; in the assay with Colletotrichum gossypii, 42%; with Scierotinia minor it was 5%. For the same compound, the pest or weed control at 1000 µg/mL in the assay on Erysiphe polygoni is 100%; in the assay on Uromyces phaseoli it was 0%.
Take `CCCC(C#N)(Cc1ccc(Oc2ccccc2)cc1)c1cccnc1` (stereo not drawn) [Compound 17]: the inhibition at 500 µg/mL in the assay on Pythium ultimum was 45%; in the assay with Botrytis cinerea, 5%; in the assay on Colletotrichum gossypii it was 20%; with Scierotinia minor, 10%. Besides, the figures for the pest or weed control at 1000 µg/mL in the assay on Erysiphe polygoni and in the assay with Uromyces phaseoli were 100% and 0%, respectively.
For the compound `C=CCC(C#N)(Cc1ccc(C(C)(C)C)cc1)c1cccnc1` (stereo not drawn) [Compound 18], the inhibition at 500 µg/mL in the assay on Pythium ultimum came out at 40%; in the assay with Botrytis cinerea, 10%; with Colletotrichum gossypii, 10%; with Scierotinia minor, 10%. Besides, the pest or weed control at 1000 µg/mL in the assay with Erysiphe polygoni turned out to be 100%; in the assay on Uromyces phaseoli it was 0%.
